The values that follow come from patent publication US10900063B2, “Measurement of Lp-PLA2 activity” (ASAHI KASEI PHARMA CORPORATION, priority 2016, dated 2021).

This assay addresses T1, Lp-PLA2 (Homo sapiens, UniProt Q13093).
T1 construct: Individual serum No. 16, individual serum No. 78; from tissue; host or cells: serum and plasma (individual sera, pooled sera, heparin and citrated pooled plasma)
T1 sequence (Q13093 22-441): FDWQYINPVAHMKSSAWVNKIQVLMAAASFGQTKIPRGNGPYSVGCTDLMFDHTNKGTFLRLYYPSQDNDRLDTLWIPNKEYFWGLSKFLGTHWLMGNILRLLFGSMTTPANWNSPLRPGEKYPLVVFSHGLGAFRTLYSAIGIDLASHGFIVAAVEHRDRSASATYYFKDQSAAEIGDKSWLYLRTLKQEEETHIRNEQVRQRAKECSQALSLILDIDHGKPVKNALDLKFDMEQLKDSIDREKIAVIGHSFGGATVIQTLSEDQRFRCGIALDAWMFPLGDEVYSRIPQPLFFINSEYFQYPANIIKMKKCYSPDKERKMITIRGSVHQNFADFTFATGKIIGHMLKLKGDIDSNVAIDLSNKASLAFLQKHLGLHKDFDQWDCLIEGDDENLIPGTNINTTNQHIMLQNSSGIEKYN
Description: Lp-PLA2 activity measurement in serum/plasma with reagents of the invention (PAF substrate, lyso-PAF-PLD, choline oxidase, peroxidase colorimetry). It is filed as biochemical. To be noted: for values for absorbance change (sensitivity) compared with DAOS: Trinder reagent with 4-AA. As to the method: Unless otherwise specified, in these examples the Method 1 described under 1) below is used for calculating Lp-PLA2 activity values. In these examples, (nmol/min/mL) is sometimes expressed as (U/L).
This is calculated by the following formula based on the absorbance change per minute (ΔmAbs/min) as calculated from absorbance at the measuring points and the millimolar extinction coefficient (ε=36) of TODB at 546 nm.
4 μL of the sample was mixed with 160 μL of the R1 reagent, and incubated for 5 minutes at 37° C. (measuring points 1 to 16), after which 40 μL of the R2 reagent was added to initiate a reaction (measuring point 17). The absorbance of water (blank) at the same measuring points was subtracted from the absorbance of the sample about 3.6 to 4.5 minutes after the reaction was initiated by addition of the R2 reagent (measuring points 30 to 33) to calculate the absorbance change per minute (ΔmAbs/min), and the Lp-PLA2 activity value (nmol/min/mL) was calculated according to the previous formula.
[…] was mixed with 150 μL of the R1 reagent, and incubated for 5 minutes at 37° C. (measuring points 1 to 15), after which 100 μL of the R2 reagent was added to initiate a reaction (measuring point 16). The absorbance of water (blank) at the same measuring points was subtracted from the absorbance of the sample about 2 to 3 minutes after the reaction was initiated by addition of the R2 reagent (measuring points 23 to 26) to calculate the absorbance change per minute (ΔmAbs/min), and the Lp-PLA2 activity value (nmol/min/mL) was calculated according to the previous formula. The values for absorbance change per minute (sensitivity) (ΔmAbs/min) and the Lp-PLA2 activity values (nmol/min/mL) at each pH are shown in Tables 1 and 2.
5 μL of sample was mixed with 150 μL of the R1 reagent, and incubated for 5 minutes at 37° C. (measuring points 1 to 15), after which 100 μL of the R2 reagent was added to initiate a reaction (measuring point 16). The absorbance of water (blank) at the same measuring points was subtracted from the absorbance of the sample about 3.5 to 4.5 minutes after the reaction was initiated by addition of the R2 reagent (measuring points 27 to 30) to calculate the absorbance change per minute (ΔmAbs/min), and the Lp-PLA2 activity value (nmol/min/mL) was calculated according to the previous formula. The values for absorbance change per minute (sensitivity) (ΔmAbs/min) and Lp-PLA2 activity (nmol/min/mL) and the relative activity for each substrate given 100 as the Lp-PLA2 activity value for PAF(C16) are shown in Tables 19 to 24.
Each sample was mixed with 160 μL of the R1 reagent, and incubated for 5 minutes at 37° C., (measuring points 1 to 15), after which 40 μL of the R2 reagent was added to initiate the reaction (measuring point 16). The absorbance of water (blank) at the same measuring points was subtracted from the absorbance of the sample about 3.5 to 4.5 minutes after the reaction was initiated by addition of the R2 reagent (measuring points 27 to 30) to calculate the absorbance change per minute (ΔmAbs/min), and the Lp-PLA2 activity value (nmol/min/mL) was calculated according to the previous formula. […]
(measuring points 1 to 16), after which 100 μL of the R2 reagent was added to initiate a reaction (measuring point 17). The absorbance of water (blank) at the same measuring points was subtracted from the absorbance of the sample about 3.5 to 4.5 minutes after the reaction was initiated by addition of the R2 reagent (measuring points 29 to 32) to calculate the absorbance change per minute (ΔmAbs/min), and the Lp-PLA2 activity value (nmol/min/mL) was calculated according to the previous formula.

[1] abbreviates: Example 10, 0.03% Trinder reagent in R1 with 4-AA, sample Individual serum No16.
Where [2] appears, read: Example 10, 0.03% Trinder reagent in R1 with 4-AA, sample Individual serum No78.
The mark [3] stands for this setting: Example 10, 0.03% Trinder reagent in R1 with 4-AA, sample Pooled serum J042.
Setting [4] is: Example 4, 50 mM buffer pH 7.5 in R1 and R2, sample Individual serum 16.
The mark [5] stands for this setting: Example 4, 50 mM buffer pH 7.5 in R1 and R2, sample Individual serum 78.

For the compound `CCN(CC(O)CS(=O)(=O)[O-])c1cc(OC)cc(OC)c1.[Na+]` (centres unmarked) [DAOS, N-ethyl-N-(2-hydroxy-3-sulfopropyl)-3,5-dimethoxyaniline sodium salt], the Lp-PLA2 activity value turned out to be 33.7 nmol/min/mL under setting [1], 14.5 nmol/min/mL under setting [2] and 14.1 nmol/min/mL under setting [3]. The “absorbance change per minute (sensitivity)” value (“absorbance change per minute” below) runs as follows: under setting [1], 14.4 ΔmAbs/min; under setting [2], 6.2 ΔmAbs/min; under setting [3], 6.0 ΔmAbs/min.

Turning to `O=S(=O)(O)CCN1CCN(CCO)CC1` [HEPES, 2-[4-(2-Hydroxyethyl)-1-piperazinyl]ethanesulfonic acid], under setting [4], the Lp-PLA2 activity value is recorded as 76.4 nmol/min/mL and the “absorbance change per minute” value is listed as 32.6 ΔmAbs/min. Under setting [5], the Lp-PLA2 activity value came out at 36.5 nmol/min/mL and the “absorbance change per minute” value is recorded as 15.6 ΔmAbs/min.

On to `O=S(=O)(O)CCCN1CCOCC1` [MOPS, 3-Morpholinopropanesulfonic acid], for which, under setting [4], the Lp-PLA2 activity value was 81.3 nmol/min/mL and the “absorbance change per minute” value was 34.7 ΔmAbs/min. Under setting [5], the Lp-PLA2 activity value was 39.4 nmol/min/mL and the “absorbance change per minute” value was 16.8 ΔmAbs/min.

Take `O=S(=O)(O)CCN1CCN(CCS(=O)(=O)O)CC1` [PIPES, Piperazine-1,4-bis(2-ethanesulfonic acid)]: the Lp-PLA2 activity value is, setting by setting: under setting [4], 89.5 nmol/min/mL; under setting [5], 43.1 nmol/min/mL. The “absorbance change per minute” value runs as follows: under setting [4], 38.2 ΔmAbs/min; under setting [5], 18.4 ΔmAbs/min.

For `O=P(O)(O)O` [Pi-K, potassium phosphate], the Lp-PLA2 activity value came to 84.3 nmol/min/mL under setting [4] and 37.5 nmol/min/mL under setting [5]. Moreover, the “absorbance change per minute” value under setting [4] is recorded as 36.0 ΔmAbs/min and the “absorbance change per minute” value under setting [5] is on record as 16.0 ΔmAbs/min.

Regarding `O=S(=O)(O)CCNC(CO)(CO)CO` [TES, N-tris(hydroxymethyl)methyl-2-aminoethanesulfonic acid], under setting [4], the Lp-PLA2 activity value is listed as 75.7 nmol/min/mL and the “absorbance change per minute” value is recorded as 32.3 ΔmAbs/min. For the same compound, under setting [5], the Lp-PLA2 activity value was found to be 37.5 nmol/min/mL and the “absorbance change per minute” value is recorded as 16.0 ΔmAbs/min.

For `Cc1cccc(N(CCCCS(=O)(=O)[O-])CCCCS(=O)(=O)[O-])c1.[Na+].[Na+]` [TODB, N,N-bis(4-sulfobutyl)-3-methylaniline, disodium salt], the Lp-PLA2 activity value under setting [1] is recorded as 71.0 nmol/min/mL, the Lp-PLA2 activity value under setting [2] came out at 30.0 nmol/min/mL and the Lp-PLA2 activity value under setting [3] came to 31.9 nmol/min/mL. Besides, the “absorbance change per minute” value under setting [1] is listed as 30.3 ΔmAbs/min, the “absorbance change per minute” value under setting [2] is 12.8 ΔmAbs/min and the “absorbance change per minute” value under setting [3] is on record as 13.6 ΔmAbs/min. The “values for absorbance change (sensitivity) compared with DAOS” value (Example 10) is reported as “about twice those obtained with DAOS”.

As for `CCN(CC(O)CS(=O)(=O)[O-])c1cccc(C)c1.O.O.[Na+]` (centres unmarked) [TOOS, N-ethyl-N-(2-hydroxy-3-sulfopropyl)-3-methylaniline, sodium salt, dihydrate], the Lp-PLA2 activity value runs as follows: under setting [1], 69.3 nmol/min/mL; under setting [2], 28.1 nmol/min/mL; under setting [3], 30.9 nmol/min/mL. The “absorbance change per minute” value was 29.6 ΔmAbs/min under setting [1], 12.0 ΔmAbs/min under setting [2] and 13.2 ΔmAbs/min under setting [3]. The “values for absorbance change (sensitivity) compared with DAOS” value (Example 10) is “about twice those obtained with DAOS”.

Regarding `NC(CO)(CO)CO` [Tris, 2-Amino-2-hydroxymethyl-1,3-propanediol], under setting [4], the Lp-PLA2 activity value amounted to 99.1 nmol/min/mL and the “absorbance change per minute” value is given as 42.3 ΔmAbs/min. Further, under setting [5], the Lp-PLA2 activity value turned out to be 44.7 nmol/min/mL and the “absorbance change per minute” value is reported as 19.1 ΔmAbs/min.
